Drawing on US5554620A, “Substituted 6,11-ethano-6,11-dihydrobenzo[b] quinolizinium salts and compositions and methods of use thereof” (Sterling Winthrop Inc., priority 1994, dated 1996), this text covers Ki for 14 compounds.

The structures appear in SMILES notation. pKi: −log10 of the molar value.

The assay concerns the target PCP receptor. In words: [3H]TCP radioreceptor assay (binding to PCP recognition sites). More on the design: species or system rat (male Sprague-Dawley, whole brain). As to conditions: [3H]TCP approx. 1 nM, rat brain membranes, mean of at least two determinations. In outline: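 Rat whole-brain membranes (Tris-HCl, pH 7.7), 0.5 mg protein/tube, incubated with ~1 nM [3H]TCP for 25 min at room temperature; non-specific binding defined with 100 μM PCP. Bound ligand collected by filtration and counted by scintillation; Ki from at least two determinations, or % inhibition at 10 μM.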

For the compound `CCOC1(c2ccoc2)CC2(C)c3ccccc3C1c1cccc[n+]12.[O-][Cl+3]([O-])([O-])[O-]` (centres unmarked) [Example 13(a), 6,11-ethano-12-(3-furyl)-12-ethoxy-6-methyl-6,11-dihydrobenzo[b]quinolizinium perchlorate], the pKi (in general, the negative decadic logarithm of the Ki, by convention in mol/L) was 7.72.

For the compound `CC1C2c3ccccc3C(c3cccc[n+]32)C1(c1ccccc1)c1ccccc1` (centres unmarked) [Example 18, 6,11-ethanol-12,12-diphenyl-13-methyl-6,11-dihydrobenzo[b]quinolizinium perchlorate], the pKi was 7.71. Compound `CC12CC(c3ccccc3)(c3ccccc3)C(c3ccccc31)c1cccc[n+]12` (centres unmarked) [Example 21, 6,11-ethano-12,12-diphenyl-6-methyl-6,11-dihydrobenzo[b]quinolizinium chloride hydrate] showed a pKi (hydrate) of 7.89. For `COc1cccc2c1C1c3cccc[n+]3C2CC1(c1ccccc1)c1ccccc1` (centres unmarked) [Example 26, 6,11-ethano-12,12-diphenyl-10-methoxy-6,11-dihydrobenzo[b]quinolizinium chloride], the pKi is 7.49. Same read-out and setting: then `CCCCCCCC(=O)Oc1cccc2c1C1c3cccc[n+]3C2CC1(c1ccoc1)c1ccoc1` (centres unmarked) [Example 165, 6,11-ethano-12,12-di(3-furyl)-10-octanoyloxy-6,11-dihydrobenzo[b]quinolizinium chloride], with 7.50. In turn, `CCOC(=O)CCC(=O)Oc1cccc2c1C1c3cccc[n+]3C2CC1(c1ccoc1)c1ccoc1` (centres unmarked) [Example 166, 6,11-ethano-12,12-di(3-furyl)-10-(3-ethoxycarbonyl)propionyloxy-6,11-dihydrobenzo-[b]quinolizinium chloride] gave a pKi of 7.21. `Oc1ccc[n+]2c1C1c3ccccc3C2CC1(c1ccoc1)c1ccoc1` (centres unmarked) [Example 168(c), 6,11-ethano-12,12-di(3-furyl)-1-hydroxy-6,11-dihydrobenzo[b]quinolizinium chloride] showed a pKi of 6.51. On the same count and under the same terms, then `CC(=O)Oc1cccc2c1C1c3cccc[n+]3C2CC1(c1ccoc1)c1ccoc1` (centres unmarked) [Example 169, 6,11-ethano-12,12-di(3-furyl)-10-acetyloxy-6,11-dihydrobenzo-[b]quinolizinium chloride], with 8.45; and `CC(=O)Oc1ccc[n+]2c1C1c3ccccc3C2CC1(c1ccoc1)c1ccoc1` (centres unmarked) [Example 170, 6,11-ethano-12,12-di(3-furyl)-1-acetyloxy-6,11-dihydrobenzo-[b]quinolizinium chloride], with 6.63. In turn, `CCCCCCCCOc1cccc2c1C1c3cccc[n+]3C2CC1(c1ccoc1)c1ccoc1.[O-][Cl+3]([O-])([O-])[O-]` (centres unmarked) [Example 172, 6,11-ethano-12,12-di(3-furyl)-10-octyloxy-6,11-dihydrobenzo[b]quinolizinium perchlorate] showed a pKi of 5.47. Same read-out and setting: then `CC(C)(C)C(=O)Oc1cccc2c1C1c3cccc[n+]3C2CC1(c1ccoc1)c1ccoc1` (centres unmarked) [Example 174, 6,11-ethano-12,12-di(3-furyl)-10-trimethylacetyloxy-6,11dihydrobenzo-[b]quinolizinium chloride], with 7.63. Still for that read-out and setting: then `Oc1cccc(C2(c3cccc(O)c3)CC3c4ccccc4C2c2cccc[n+]23)c1.[O-][Cl+3]([O-])([O-])[O-]` (centres unmarked) [Example 177, 6,11-ethano-12,12-di(m-hydroxyphenyl)-6,11-dihydrobenzo[b]quinolizinium perchlorate], with 7.86; and `Oc1ccc2[n+](c1)C1CC(c3ccoc3)(c3ccoc3)C2c2ccccc21` (centres unmarked) [Example 191(f), 12,12-di(3-furyl)-3-hydroxy-6,11-ethano-6,11-dihydrobenzo[b]quinolizinium chloride], with 5.82; and `Oc1cccc2c1C1c3cccc[n+]3C2CC1(c1ccoc1)c1ccn[nH]1` (centres unmarked) [Example 200, 6,11-ethano-12-(3-furyl)-12-(pyrazol-5-yl)-10-hydroxy-6,11-dihydro-benzo[b]quinolizinium chloride], with 7.94.
